Reference: PubChem BioAssay (NCI)
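All cell lines were grown in 96-well plates and treated with compound for 48 hours. GI50 marks 50% less growth. The concentration for full growth arrest is given as TGI.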

Legend:
Assay in all cases: NCI anticancer screen, dose series, 48 h
[1] = system: TK-10 renal
[2] = system: DU-145 prostate
[3] = system: UACC-62 melanoma
[4] = system: U251 CNS
[5] = system: HCT-116 colon
[6] = system: HOP-92 NSCLC
[7] = system: MOLT-4 leukemia
[8] = system: ACHN renal
[9] = system: SNB-19 CNS
[10] = system: SNB-75 CNS
[11] = system: MALME-3M melanoma
[12] = system: NCI/ADR-RES ovarian
[13] = system: HS 578T breast
[14] = system: HCC-2998 colon
[15] = system: CAKI-1 renal
[16] = system: 786-0 renal
[17] = system: SF-295 CNS
[18] = system: CCRF-CEM leukemia
[19] = system: NCI-H23 lung
[20] = system: NCI-H460 lung
[21] = system: A498 renal
[22] = system: SF-539 CNS
[23] = system: COLO 205 colon
[24] = system: BT-549 breast
[25] = system: OVCAR-3 ovarian
[26] = system: M14 melanoma
[27] = system: SN12C renal
[28] = system: HCT-15 colon
[29] = system: SK-MEL-5 melanoma
[30] = system: KM12 colon
[31] = system: HT29 colon
[32] = system: OVCAR-4 ovarian
[33] = system: HOP-62 NSCLC
[34] = system: RXF 393 renal
[35] = system: K-562 leukemia
[36] = system: NCI-H522 lung
[37] = system: T-47D breast
[38] = system: EKVX NSCLC
[39] = system: OVCAR-8 ovarian
[40] = system: LOX IMVI melanoma
[41] = system: MDA-MB-231 breast
[42] = system: IGROV1 ovarian
[43] = system: OVCAR-5 ovarian
[44] = system: HL-60(TB) leukemia
[45] = system: SW-620 colon
[46] = system: SK-MEL-28 melanoma
[47] = system: PC-3 prostate
[48] = system: MDA-MB-435
[49] = system: UO-31 renal
[50] = system: A549 NSCLC
[51] = system: SK-OV-3 ovarian
[52] = system: SF-268 CNS
[53] = system: RPMI-8226 leukemia
[54] = system: SK-MEL-2 melanoma
[55] = system: MCF7 breast

SMILES: C[C@@H](C[C@H](CCO)c1ccccc1)c1ccc2ccccc2c1
- GI50 [1]: 1620 nM
- TGI [1]: 3120 nM
- GI50 [2]: 1470 nM
- TGI [2]: 2840 nM
- GI50 [3]: 1420 nM
- TGI [3]: 2860 nM
- GI50 [4]: 1570 nM
- TGI [4]: 2940 nM
- GI50 [5]: 1360 nM
- TGI [5]: 2670 nM
- GI50 [6]: 1390 nM
- TGI [6]: 2770 nM
- GI50 [7]: 356 nM
- TGI [7]: 1610 nM
- GI50 [8]: 1650 nM
- TGI [8]: 3010 nM
- GI50 [9]: 1790 nM
- TGI [9]: 3420 nM
- GI50 [10]: 1350 nM
- TGI [10]: 2760 nM
- GI50 [11]: 1490 nM
- TGI [11]: 2890 nM
- GI50 [12]: 1660 nM
- TGI [12]: 3400 nM
- GI50 [13]: 1690 nM
- TGI [13]: 3840 nM
- GI50 [14]: 1740 nM
- TGI [14]: 3270 nM
- GI50 [15]: 1280 nM
- TGI [15]: 2540 nM
- GI50 [16]: 1510 nM
- TGI [16]: 2890 nM
- GI50 [17]: 1720 nM
- TGI [17]: 3190 nM
- GI50 [18]: 364 nM
- TGI [18]: 1510 nM
- GI50 [19]: 1600 nM
- TGI [19]: 3380 nM
- GI50 [20]: 1790 nM
- TGI [20]: 3420 nM
- GI50 [21]: 1160 nM
- TGI [21]: 2420 nM
- GI50 [22]: 1680 nM
- TGI [22]: 3110 nM
- GI50 [23]: 1750 nM
- TGI [23]: 3410 nM
- GI50 [24]: 1680 nM
- TGI [24]: 3100 nM
- GI50 [25]: 1540 nM
- TGI [25]: 2910 nM
- GI50 [26]: 1460 nM
- TGI [26]: 2840 nM
- GI50 [27]: 1690 nM
- TGI [27]: 3220 nM
- GI50 [28]: 1500 nM
- TGI [28]: 2910 nM
- GI50 [29]: 1570 nM
- TGI [29]: 2910 nM
- GI50 [30]: 1400 nM
- TGI [30]: 2830 nM
- GI50 [31]: 1430 nM
- TGI [31]: 2800 nM
- GI50 [32]: 1510 nM
- TGI [32]: 2880 nM
- GI50 [33]: 1520 nM
- TGI [33]: 2990 nM
- GI50 [34]: 1450 nM
- TGI [34]: 2910 nM
- GI50 [35]: 1630 nM
- TGI [35]: 3820 nM
- GI50 [36]: 1330 nM
- TGI [36]: 2780 nM
- GI50 [37]: 1440 nM
- TGI [37]: 3110 nM
- GI50 [38]: 1440 nM
- TGI [38]: 2820 nM
- GI50 [39]: 1850 nM
- TGI [39]: 3820 nM
- GI50 [40]: 1600 nM
- TGI [40]: 2960 nM
- GI50 [41]: 1600 nM
- TGI [41]: 3190 nM
- GI50 [42]: 1570 nM
- TGI [42]: 3010 nM
- GI50 [43]: 1570 nM
- TGI [43]: 3040 nM
- GI50 [44]: 1910 nM
- TGI [44]: 4000 nM
- GI50 [45]: 1630 nM
- TGI [45]: 3140 nM
- GI50 [46]: 1640 nM
- TGI [46]: 3060 nM
- GI50 [47]: 1390 nM
- TGI [47]: 2720 nM
- GI50 [48]: 1560 nM
- TGI [48]: 2950 nM
- GI50 [49]: 1540 nM
- TGI [49]: 2880 nM
- GI50 [50]: 1710 nM
- TGI [50]: 3140 nM
- GI50 [51]: 1700 nM
- TGI [51]: 3100 nM
- GI50 [52]: 1480 nM
- TGI [52]: 3090 nM
- GI50 [53]: 1850 nM
- TGI [53]: 4260 nM
- GI50 [54]: 1520 nM
- TGI [54]: 3020 nM
- GI50 [55]: 1970 nM
- TGI [55]: 4040 nM
